{
  "source": "paper PMC3668706",
  "about": "“Highly Divergent T-cell Receptor Binding Modes Underlie Specific Recognition of a Bulged Viral Peptide bound to a Human Leukocyte Antigen Class I Molecule” (The Journal of Biological Chemistry, 2013)",
  "key": {"SB47 CTL clone": {"test_system": "SB47 CTL clone", "test": "Intracellular IFN-γ staining, SB47 CTL clone with LPEP-pulsed T2 cells", "type": "cell-based, human", "details": "IFNγ intracellular staining, peptide-pulsed T2 cells, 4 h; performed twice", "experimental": "Data were analyzed with FlowJo software (Tree Star)."}, "CA5 CTL clone": {"test_system": "CA5 CTL clone", "details": "IFNγ intracellular staining, peptide-pulsed T2 cells, 4 h; performed twice", "procedure": "CTL clones were tested against a range of antigen-presenting cells and assayed for intracellular expression of IFN-γ by flow cytometry using the BD Cytofix/Cytoperm kit (BD Biosciences) according to standard protocols. Briefly, clones were incubated with antigen-presenting cells at a stimulator to responder ratio of 1:2 for 4 h in the presence of brefeldin A (BioLegend). For peptide titration experiments, T2 cells were incubated with various concentrations of LPEP peptide for 1 h and then washed thoroughly prior to incubation with CTL clones. After stimulation, cells were stained with Live/Dead Fixable Aqua Dead Cell Stain (Invitrogen) and anti-CD8-Cy5.5-PerCP mAb (BioLegend) for 30 min at 4 °C. Cells were then washed, fixed, permeabilized, and labeled with anti-IFN-γ-antigen-presenting cell mAb (BioLegend) for 30 min at 4 °C. After a further wash, samples were collected using a FACSCanto II flow cytometer (BD Biosciences). Data were analyzed with FlowJo software (Tree Star). Lymphocytes were identified based on light scatter, then live CD8^+ T-cells were selected and IFN-γ^+ gates were drawn based on unstimulated controls."}},
  "data": [
    {"sequence": "LPEPLPQGQLTAY [LPEP peptide]", "values": [
      {"measurement": "recognition of LPEP presented by HLA-B*35:08 versus HLA-B*35:01 by SB47 CTL clone", "setting": "SB47 CTL clone", "value": "equally well"},
      {"measurement": "recognition of LPEP presented by HLA-B*35:08 versus HLA-B*35:01 by CA5 CTL clone", "setting": "CA5 CTL clone", "value": "preferentially recognized HLA-B*35:08^LPEP when the peptide was limited"}
    ]}
  ]
}
